# From the supplement of paper PMC10307832
# Columns and labels:
# Test in all cases: relative viability (nuclei count vs DMSO), 5 days (fraction); higher = more cells survive
# 201T = tested on: 201T
# Outline: (§1)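 Lung cancer cell lines were seeded in 1536-well plates and dosed by pin tool the next day, with either a single drug or a fixed anchor-drug dose combined with five library-drug doses (not always all listed) spaced in √10 steps. Five days later, one step fixed the cells and stained their nuclei (final 0.05% Triton X-100, 1% formaldehyde, 1 ug/ml Hoechst), and nuclei were counted on 4× images. Relative viability is the nuclei count in treated wells divided by the count in vehicle wells, and each value is the median of duplicate plates.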
# BEN = tested on: BEN
# Outline: as §1
# CAL-12T = tested on: CAL-12T
# Outline: as §1
# COR-L 105 = tested on: COR-L 105
# Outline: as §1
# H3255 = tested on: H3255
# Outline: as §1
# HARA = tested on: HARA
# Outline: as §1
# HCC-15 = tested on: HCC-15
# Outline: as §1
# HCC-827 = tested on: HCC-827
# Outline: as §1
# LC-2-ad = tested on: LC-2-ad
# Outline: as §1
# LK-2 = tested on: LK-2
# Outline: as §1
# LU99A = tested on: LU99A
# Outline: as §1
# LXF-289 = tested on: LXF-289
# Outline: as §1
# NCI-H1437 = tested on: NCI-H1437
# Outline: as §1
# NCI-H1650 = tested on: NCI-H1650
# Outline: as §1
# NCI-H1651 = tested on: NCI-H1651
# Outline: as §1
# NCI-H1792 = tested on: NCI-H1792
# Outline: as §1
# NCI-H2085 = tested on: NCI-H2085
# Outline: as §1
# NCI-H2228 = tested on: NCI-H2228
# Outline: as §1
# NCI-H23 = tested on: NCI-H23
# Outline: as §1
# NCI-H2405 = tested on: NCI-H2405
# Outline: as §1
# NCI-H322M = tested on: NCI-H322M
# Outline: as §1
# RERF-LC-KJ = tested on: RERF-LC-KJ
# Outline: as §1
# UMC-11 = tested on: UMC-11
# Outline: as §1
structure (smiles),measurement,setting,value
CCCCCCCCCCCC1=C(O)C(=O)C=C(O)C1=O [Embelin] + CS(=O)(=O)CCNCc1ccc(-c2ccc3ncnc(Nc4ccc(OCc5cccc(F)c5)c(Cl)c4)c3c2)o1 [Lapatinib] (partner 2 µM),relative viability,201T; first compound 0.08 µM,1.03
same,relative viability,201T; first compound 0.8 µM,1.04
same,relative viability,201T; first compound 2.53 µM,1
same,relative viability,201T; first compound 8 µM,0.99
same,relative viability,BEN; first compound 0.08 µM,0.697
same,relative viability,BEN; first compound 0.8 µM,0.887
same,relative viability,BEN; first compound 2.53 µM,0.805
same,relative viability,BEN; first compound 8 µM,0.73
same,relative viability,CAL-12T; first compound 0.08 µM,0.757
same,relative viability,CAL-12T; first compound 0.8 µM,0.878
same,relative viability,CAL-12T; first compound 8 µM,0.703
same,relative viability,COR-L 105; first compound 0.08 µM,0.356
same,relative viability,COR-L 105; first compound 0.8 µM,0.436
same,relative viability,COR-L 105; first compound 2.53 µM,0.384
same,relative viability,COR-L 105; first compound 8 µM,0.391
same,relative viability,H3255; first compound 0.08 µM,0.225
same,relative viability,H3255; first compound 0.8 µM,0.281
same,relative viability,H3255; first compound 2.53 µM,0.234
same,relative viability,H3255; first compound 8 µM,0.281
same,relative viability,HARA; first compound 0.08 µM,0.665
same,relative viability,HARA; first compound 0.8 µM,0.961
same,relative viability,HARA; first compound 2.53 µM,0.895
same,relative viability,HARA; first compound 8 µM,0.755
same,relative viability,HCC-15; first compound 0.08 µM,0.835
same,relative viability,HCC-15; first compound 0.8 µM,0.92
same,relative viability,HCC-15; first compound 2.53 µM,0.944
same,relative viability,HCC-15; first compound 8 µM,0.795
same,relative viability,HCC-827; first compound 0.08 µM,0.157
same,relative viability,HCC-827; first compound 0.8 µM,0.176
same,relative viability,HCC-827; first compound 2.53 µM,0.179
same,relative viability,HCC-827; first compound 8 µM,0.197
same,relative viability,LC-2-ad; first compound 0.08 µM,0.96
same,relative viability,LC-2-ad; first compound 0.8 µM,1.16
same,relative viability,LC-2-ad; first compound 2.53 µM,1.07
same,relative viability,LC-2-ad; first compound 8 µM,0.983
same,relative viability,LK-2; first compound 0.08 µM,0.906
same,relative viability,LK-2; first compound 0.8 µM,0.991
same,relative viability,LK-2; first compound 2.53 µM,1.24
same,relative viability,LK-2; first compound 8 µM,0.825
same,relative viability,LU99A; first compound 0.08 µM,0.999
same,relative viability,LU99A; first compound 0.8 µM,0.991
same,relative viability,LU99A; first compound 2.53 µM,1.12
same,relative viability,LU99A; first compound 8 µM,0.855
same,relative viability,LXF-289; first compound 0.08 µM,0.961
same,relative viability,LXF-289; first compound 0.8 µM,0.882
same,relative viability,LXF-289; first compound 2.53 µM,0.978
same,relative viability,LXF-289; first compound 8 µM,0.936
same,relative viability,NCI-H1437; first compound 0.08 µM,0.784
same,relative viability,NCI-H1437; first compound 0.8 µM,0.938
same,relative viability,NCI-H1437; first compound 2.53 µM,1.04
same,relative viability,NCI-H1437; first compound 8 µM,0.466
same,relative viability,NCI-H1650; first compound 0.08 µM,0.762
same,relative viability,NCI-H1650; first compound 0.8 µM,0.931
same,relative viability,NCI-H1650; first compound 2.53 µM,0.74
same,relative viability,NCI-H1650; first compound 8 µM,0.712
same,relative viability,NCI-H1651; first compound 0.08 µM,0.789
same,relative viability,NCI-H1651; first compound 0.8 µM,0.974
same,relative viability,NCI-H1651; first compound 2.53 µM,0.99
same,relative viability,NCI-H1651; first compound 8 µM,0.824
same,relative viability,NCI-H1792; first compound 0.08 µM,0.917
same,relative viability,NCI-H1792; first compound 0.8 µM,0.877
same,relative viability,NCI-H1792; first compound 2.53 µM,1.09
same,relative viability,NCI-H1792; first compound 8 µM,1.06
same,relative viability,NCI-H2085; first compound 0.08 µM,0.743
same,relative viability,NCI-H2085; first compound 0.8 µM,0.92
same,relative viability,NCI-H2085; first compound 2.53 µM,0.778
same,relative viability,NCI-H2085; first compound 8 µM,0.731
same,relative viability,NCI-H2228; first compound 0.08 µM,1.36
same,relative viability,NCI-H2228; first compound 0.8 µM,1.1
same,relative viability,NCI-H2228; first compound 2.53 µM,1.41
same,relative viability,NCI-H2228; first compound 8 µM,1.08
same,relative viability,NCI-H23; first compound 0.08 µM,1.17
same,relative viability,NCI-H23; first compound 0.8 µM,1.2
same,relative viability,NCI-H23; first compound 2.53 µM,1.36
same,relative viability,NCI-H23; first compound 8 µM,1.07
same,relative viability,NCI-H2405; first compound 0.08 µM,1.16
same,relative viability,NCI-H2405; first compound 0.8 µM,1.48
same,relative viability,NCI-H2405; first compound 2.53 µM,1.06
same,relative viability,NCI-H2405; first compound 8 µM,1.02
same,relative viability,NCI-H322M; first compound 0.08 µM,0.548
same,relative viability,NCI-H322M; first compound 0.8 µM,0.614
same,relative viability,NCI-H322M; first compound 2.53 µM,0.726
same,relative viability,NCI-H322M; first compound 8 µM,0.561
same,relative viability,RERF-LC-KJ; first compound 0.08 µM,0.81
same,relative viability,RERF-LC-KJ; first compound 0.8 µM,0.935
same,relative viability,RERF-LC-KJ; first compound 2.53 µM,0.991
same,relative viability,RERF-LC-KJ; first compound 8 µM,0.84
same,relative viability,UMC-11; first compound 0.08 µM,1.12
same,relative viability,UMC-11; first compound 0.8 µM,1.17
same,relative viability,UMC-11; first compound 2.53 µM,1.08
same,relative viability,UMC-11; first compound 8 µM,0.877
